Results as given in US10443043B2, “Methods for making induced pluripotent stem cells” (NEW YORK UNIVERSITY, priority 2015, dated 2019).

Experiments:
Assay type in all cases: cell-based, mouse
reprogrammable MEFs = test: Reprogramming of reprogrammable MEFs seeded in bulk, dox-independent colonies; settings: six days dox plus compound, then three days unsupplemented ESC media
Method: (§1) MEFs (Stadtfeld et al., 2008) and hepatoblasts (Gailhouste, 2012) were isolated from E14.5 embryos and GMPs, CMPs, MEP and LSK cells from either fetal liver or adult bone marrow (Akashi et al., 2000). All cell types used for reprogramming experiments were heterozygous for the inducible OKSM cassette, Rosa26-rtTA and the Oct4-GFP reporter. MEFs were expanded in reduced-oxygen conditions (4%) and used at passages 1 or 2. For reprogramming, cells were seeded in ESC media (DMEM with 15% FBS, L-glutamin, penicillin-streptomycin, nonessential amino acids, β-mercaptoethanol and 1000 U/ml LIF) at the desired density on a layer of irradiated feeder cells in presence of 1 mg/ml doxycycline. If applicable, L-Ascorbic acid (50 ng/μl), CHIR99021 (3 μM), TGFβ RI Kinase Inhibitor II (250 nM) and PD032590 (0.75 μM) were added. For GMPs and other blood progenitors, cultures were supplemented with Flt3-ligand (10 ng/ml) and SCF (20 ng/ml) for the first three days of reprogramming. Media was replenished every two days. To facilitate detection of Oct4-GFP expression in nascent colonies by fluorescent microscopy, reprogramming experiments were conducted in ESC media prepared with FluoroBrite DMEM (Life Technologies) when required. To score factor-independent colonies, dox (and other compounds) were removed by washing cultures twice with PBS and then maintaining them in ESC media for at least three days before colonies were counted by fluorescence microscopy or after alkaline phosphatase staining (Vector Laboratories). For quantification of Oct4-GFP expression, cultures were harvested by trypsin digestion, stained with DAPI or 7-AAD to exclude dead cells, acquired on a LSRII cytometer (BD Biosciences) and analyzed with FlowJo software (Tree Star Inc.).
The aforementioned compounds were tested using “reprogrammable MEFs” (Stadtfeld et al., 2010) engineered to express a doxycycline (dox)-inducible cassette encoding OKSM (Sommer et al., 2009) from a single defined genomic position and a GFP reporter from the endogenous Oct4 locus, whose expression is a hallmark of the pluripotent state. […]

GMPs [1] = test: Bulk reprogramming of granulocyte-macrophage progenitors, dox-independent colonies
Method: as §1, with “For GMPs and other blood progenitors, cultures were supplemented with Flt3-ligand (10 ng/ml) and SCF (20 ng/ml) for the first three days of reprogramming. Media was replenished every two days. To facilitate detection of Oct4-GFP expression in nascent colonies by fluorescent microscopy, reprogramming experiments were conducted in ESC media prepared with FluoroBrite DMEM (Life Technologies) when required.” left out, “Inc.). […]” for “Inc.).”

[2] = test system: SSEA1+ day 4 intermediates of reprogrammable MEFs; test: Microarray and gene ontology analysis of day 4 reprogramming intermediates; settings: individual chemical
Source text: For the study of reprogramming intermediates, cultures of reprogrammable MEFs at day 4 in presence of OKSM expression were harvested and stained with biotinylated anti-SSEA1 antibody (MC-480, eBioscience), followed by APC-conjugated Streptavidin and anti-APC microbeads (Milteny Biotec). SSEA1^+ cells were enriched to ˜90% purity using MACS separation columns (Milteny Biotec) according to the manufacturer's instructions. Total RNA extracted with the miRNeasy mini kit (QIAGEN) with a RIN value >8 was subjected to transcriptional analyses with Affymetrix mouse genome 430 2.0 mRNA expression microarrays followed by bioinformatic analyses.
Pair-wise differential expression of MEFs, ESCs, GMPs and HEPs was assessed using a t-test and the resulting p-values were adjusted for multiple hypothesis testing as by the Benjamini & Hochberg procedure. […] FDR was assessed using the following methodology. […] Briefly, differential expression was assessed for every Affymetrix transcript probe between samples. As a preprocessing step, quantiles were normalized across samples and replicates, and subsequently fold changes were computed for each probe across the two replicates of each sample. The false discovery rate was computed by comparing the distribution of fold changes against the distribution of fold changes between replicates of the same sample.

GMPs [3] = test: Single cell seeding of DsRed GMPs, Oct4-GFP expression; settings: flow cytometry, six days
Method: as §1, with “For GMPs and other blood progenitors, cultures were supplemented with Flt3-ligand (10 ng/ml) and SCF (20 ng/ml) for the first three days of reprogramming. Media was replenished every two days. To facilitate detection of Oct4-GFP expression in nascent colonies by fluorescent microscopy, reprogramming experiments were conducted in ESC media prepared with FluoroBrite DMEM (Life Technologies) when required.” left out, “Inc.). […]” for “Inc.).”

hepatoblasts = test: Reprogramming of hepatoblasts, dox-independent colonies; settings: compound alone
Method: as §1, with “For GMPs and other blood progenitors, cultures were supplemented with Flt3-ligand (10 ng/ml) and SCF (20 ng/ml) for the first three days of reprogramming. Media was replenished every two days. To facilitate detection of Oct4-GFP expression in nascent colonies by fluorescent microscopy, reprogramming experiments were conducted in ESC media prepared with FluoroBrite DMEM (Life Technologies) when required.” left out, “Inc.). […]” for “Inc.).”

β-catenin = β-catenin immunofluorescence in GMPs; settings: purified GMPs cultured in CHIR, two days
Source text: FIG. 8A-8G. Related to FIG. 3. (8A) Fluorescence images of DsRed and Oct4-GFP expression in a representative GMP-derived colony derived upon culture in dox+CHIR for six days. (8B) Percentage of Oct4-GFP^+ cells in successfully reprogramming colonies after single cell seeding of GMPs in dox+CHIR or dox+3c, respectively (n=10 clonal colonies for each condition). (8C) AP staining of dox-independent colonies derived from LSK, GMP, MEP and CMPs in dox, dox+CHIR or dox+3c after six days of culture. (8D) Percentage of Oct4-GFP^+ cells in colonies obtained after single cell seeding of hepatoblasts and culture under the indicated conditions for six days (n=10 clonal colonies). (8E) IF images of β-catenin staining in cells derived from GMPs cultured under dox or dox+CHIR for two days. White arrows highlight representative cells positive for β-catenin expression. […]
Cells were fixed with paraformaldehyde, permeabilized and stained with primary antibodies against Oct4 (Santa Cruz, sc-8628), Nanog (Abcam, ab808992), Utf1 (Abcam, ab24273), Sall4 (Abcam, ab29112), Lin28 (Abcam, ab46020) and β-catenin (Sigma, C7207) followed by staining with appropriate secondary antibodies conjugated to either Alexa Fluor 555 or 647 (Invitrogen). Images were acquired with a Neo 5.5 cSMOS camera (Andor) and processed and analyzed using NIS-Elements and Adobe Photoshop. […]

| Structure (SMILES) | dox-independent colonies, efficiency of input cells (reprogrammable MEFs) | effect on iPSC formation from blood progenitor cells (GMPs [1]) | aspect of the somatic program whose silencing is facilitated (GO analysis) [2] | average GFP labeling index (Oct4-GFP+ cells in colonies) (GMPs [3]) | effect on number of iPSC colonies from hepatoblasts (hepatoblasts) | β-catenin protein level (β-catenin) |
| --- | --- | --- | --- | --- | --- | --- |
| O=C1O[C@H]([C@@H](O)CO)C(O)=C1O [AA, ascorbic acid] | about 2% | did not significantly enhance | mesodermal differentiation potential | – | – | – |
| Cc1c[nH]c(-c2cnc(NCCNc3ccc(C#N)cn3)nc2-c2ccc(Cl)cc2Cl)n1 [CHIR] | 0.5% | – | – | over 90% | little beneficial effect | rapidly accumulated |
| Cc1cccc(-c2[nH]ncc2-c2ccc3ncccc3n2)n1 [iAlk5] | about 2% | – | collagen synthesis | – | – | – |
